Laboratory results from paper PMC3914206.

Tests used:
Assay in all cases: KiNativ chemical proteomics profiling in HeLa and PC3 cell lysates
Type in all cases: binding
[1] = target: T1, selected panels of kinases in HeLa and PC3 cell lysates (Homo sapiens, UniProt P24941); conditions: 10 uM, peptide DLk[…], labeling site Lys2
T1 construct: endogenous in cells; host or cells: HeLa and PC3 cell lysates

[2] = target: T2, selected panels of kinases in HeLa and PC3 cell lysates (Homo sapiens, UniProt Q05397); conditions: 10 uM; proteome PC3; peptide […]kTCK; labeling site Lys1
T2 construct: endogenous in cells; host or cells: HeLa and PC3 cell lysates

[3] = target: T3, selected panels of kinases in HeLa and PC3 cell lysates (Homo sapiens, UniProt Q13188); conditions: 10 uM, peptide […]k[…], labeling site Lys1
T3 construct: endogenous in cells; host or cells: HeLa and PC3 cell lysates
T3 sequence (Q13188 1-491): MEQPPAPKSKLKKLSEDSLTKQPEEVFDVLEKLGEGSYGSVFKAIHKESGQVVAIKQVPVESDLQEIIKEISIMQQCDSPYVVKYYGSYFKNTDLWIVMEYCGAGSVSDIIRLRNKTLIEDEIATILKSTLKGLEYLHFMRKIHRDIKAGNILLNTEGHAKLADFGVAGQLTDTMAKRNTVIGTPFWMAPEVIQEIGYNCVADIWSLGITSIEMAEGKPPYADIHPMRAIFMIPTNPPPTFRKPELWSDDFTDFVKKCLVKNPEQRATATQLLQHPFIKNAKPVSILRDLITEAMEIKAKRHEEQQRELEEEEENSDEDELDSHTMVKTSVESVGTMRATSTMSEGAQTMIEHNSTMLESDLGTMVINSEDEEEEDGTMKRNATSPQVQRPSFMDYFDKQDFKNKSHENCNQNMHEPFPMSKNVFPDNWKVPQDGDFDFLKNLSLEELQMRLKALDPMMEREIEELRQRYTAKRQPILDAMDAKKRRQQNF

[4] = target: T4, selected panels of kinases in HeLa and PC3 cell lysates (Homo sapiens, UniProt Q6PHR2); conditions: 10 uM; ULK3; peptide EVVAIkCVAK; proteome HEL; labeling site Lys1
T4 construct: endogenous in cells; host or cells: HeLa and PC3 cell lysates

[5] = target: T5, selected panels of kinases in HeLa and PC3 cell lysates (Homo sapiens, UniProt P07332); conditions: 10 uM; proteome HEL; peptide […]kSCR; labeling site Lys1
T5 construct: endogenous in cells; host or cells: HeLa and PC3 cell lysates

[6] = target: T6, selected panels of kinases in HeLa and PC3 cell lysates (Homo sapiens, UniProt P25098); conditions: 10 uM; proteome HEL; peptide DLk[…]; labeling site Lys2
T6 construct: endogenous in cells; host or cells: HeLa and PC3 cell lysates

[7] = target: T7, selected panels of kinases in HeLa and PC3 cell lysates (Homo sapiens, UniProt P15735); conditions: 10 uM; PHKg2; peptide ATGHEFAVkIMEVTAER; proteome PC3; labeling site Lys1
T7 construct: endogenous in cells; host or cells: HeLa and PC3 cell lysates

[8] = target: T8, selected panels of kinases in HeLa and PC3 cell lysates (Homo sapiens, UniProt P19784); conditions: 10 uM; proteome PC3; peptide DVk[…]; labeling site Lys2
T8 construct: endogenous in cells; host or cells: HeLa and PC3 cell lysates
T8 sequence (P19784 whole entry): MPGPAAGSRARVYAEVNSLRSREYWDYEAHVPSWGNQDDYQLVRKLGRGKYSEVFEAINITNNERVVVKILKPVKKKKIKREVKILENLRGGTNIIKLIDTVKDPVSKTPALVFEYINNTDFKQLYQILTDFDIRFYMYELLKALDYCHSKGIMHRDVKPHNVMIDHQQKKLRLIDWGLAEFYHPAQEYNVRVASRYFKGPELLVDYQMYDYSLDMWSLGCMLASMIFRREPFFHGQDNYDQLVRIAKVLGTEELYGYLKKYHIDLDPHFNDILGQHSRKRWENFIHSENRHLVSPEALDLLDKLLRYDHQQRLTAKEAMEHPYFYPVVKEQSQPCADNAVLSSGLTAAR

[9] = target: T9, selected panels of kinases in HeLa and PC3 cell lysates (Homo sapiens, UniProt Q8NEB9); conditions: 10 uM; PIK3C3; peptide […]kHGDDLR; proteome HEL; labeling site ATP
T9 construct: endogenous in cells; host or cells: HeLa and PC3 cell lysates

[10] = target: T10, selected panels of kinases in HeLa and PC3 cell lysates (Homo sapiens, UniProt Q00535); conditions: 10 uM, proteome PC3
T10 construct: endogenous in cells; host or cells: HeLa and PC3 cell lysates
T10 sequence (Q00535 whole entry): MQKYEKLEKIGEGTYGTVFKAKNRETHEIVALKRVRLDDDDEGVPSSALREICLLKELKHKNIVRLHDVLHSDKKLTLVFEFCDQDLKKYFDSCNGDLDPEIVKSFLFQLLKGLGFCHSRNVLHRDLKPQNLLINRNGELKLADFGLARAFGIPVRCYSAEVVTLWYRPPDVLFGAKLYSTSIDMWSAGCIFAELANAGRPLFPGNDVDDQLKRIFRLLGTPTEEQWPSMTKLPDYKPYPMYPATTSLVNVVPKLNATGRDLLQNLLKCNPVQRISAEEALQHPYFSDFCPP

[11] = target: T11, selected panels of kinases in HeLa and PC3 cell lysates (Homo sapiens, UniProt P07948); conditions: 10 uM; proteome HEL; peptide VAVk[…]; labeling site Lys1
T11 construct: endogenous in cells; host or cells: HeLa and PC3 cell lysates
T11 sequence (P07948 whole entry): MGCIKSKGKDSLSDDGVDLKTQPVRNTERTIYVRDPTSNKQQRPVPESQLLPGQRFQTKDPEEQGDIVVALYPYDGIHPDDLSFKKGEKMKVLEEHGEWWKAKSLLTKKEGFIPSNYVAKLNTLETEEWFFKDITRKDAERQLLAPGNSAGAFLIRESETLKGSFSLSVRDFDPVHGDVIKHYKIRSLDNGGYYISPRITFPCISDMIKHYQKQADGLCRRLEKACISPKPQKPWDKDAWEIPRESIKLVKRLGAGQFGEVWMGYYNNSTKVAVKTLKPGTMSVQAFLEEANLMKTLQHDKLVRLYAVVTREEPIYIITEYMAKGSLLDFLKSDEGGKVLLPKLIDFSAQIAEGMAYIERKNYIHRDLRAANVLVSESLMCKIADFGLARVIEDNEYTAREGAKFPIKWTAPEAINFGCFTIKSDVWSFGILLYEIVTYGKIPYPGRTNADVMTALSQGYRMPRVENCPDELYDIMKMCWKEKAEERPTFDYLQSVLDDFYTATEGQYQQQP

[12] = target: T12, selected panels of kinases in HeLa and PC3 cell lysates (Homo sapiens, UniProt O15111); conditions: 10 uM; proteome HEL; peptide DLk[…]; labeling site Lys2
T12 construct: endogenous in cells; host or cells: HeLa and PC3 cell lysates

[13] = target: T13, selected panels of kinases in HeLa and PC3 cell lysates (Homo sapiens, UniProt P30291); conditions: 10 uM; Wee1; peptide […]k[…]; proteome HEL; labeling site Lys2
T13 construct: endogenous in cells; host or cells: HeLa and PC3 cell lysates
T13 sequence (P30291 whole entry): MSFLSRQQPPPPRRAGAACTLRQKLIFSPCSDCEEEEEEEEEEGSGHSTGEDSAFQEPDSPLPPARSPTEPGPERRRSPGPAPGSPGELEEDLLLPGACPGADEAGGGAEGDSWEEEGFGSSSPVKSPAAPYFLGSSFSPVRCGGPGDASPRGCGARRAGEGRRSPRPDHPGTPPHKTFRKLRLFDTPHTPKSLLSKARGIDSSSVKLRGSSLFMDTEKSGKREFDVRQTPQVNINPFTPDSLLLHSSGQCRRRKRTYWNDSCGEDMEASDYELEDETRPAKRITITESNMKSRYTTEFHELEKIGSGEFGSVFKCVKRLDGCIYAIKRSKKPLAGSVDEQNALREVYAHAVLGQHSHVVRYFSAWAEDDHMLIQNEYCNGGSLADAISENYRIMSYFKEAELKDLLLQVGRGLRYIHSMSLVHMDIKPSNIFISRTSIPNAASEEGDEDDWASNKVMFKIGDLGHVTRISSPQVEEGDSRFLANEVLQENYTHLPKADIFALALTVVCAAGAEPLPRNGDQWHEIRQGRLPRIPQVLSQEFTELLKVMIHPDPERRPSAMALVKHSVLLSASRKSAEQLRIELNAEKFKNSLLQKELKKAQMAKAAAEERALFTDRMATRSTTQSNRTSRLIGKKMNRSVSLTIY

[14] = target: T14, selected panels of kinases in HeLa and PC3 cell lysates (Homo sapiens, UniProt P49760); conditions: 10 uM; proteome PC3; peptide LTHTDLk[…]; labeling site Lys2
T14 construct: endogenous in cells; host or cells: HeLa and PC3 cell lysates

[15] = target: T15, selected panels of kinases in HeLa and PC3 cell lysates (Homo sapiens, UniProt Q9Y6R4); conditions: 10 uM, peptide DIk[…], labeling site Lys2
T15 construct: endogenous in cells; host or cells: HeLa and PC3 cell lysates
T15 sequence (Q9Y6R4 whole entry): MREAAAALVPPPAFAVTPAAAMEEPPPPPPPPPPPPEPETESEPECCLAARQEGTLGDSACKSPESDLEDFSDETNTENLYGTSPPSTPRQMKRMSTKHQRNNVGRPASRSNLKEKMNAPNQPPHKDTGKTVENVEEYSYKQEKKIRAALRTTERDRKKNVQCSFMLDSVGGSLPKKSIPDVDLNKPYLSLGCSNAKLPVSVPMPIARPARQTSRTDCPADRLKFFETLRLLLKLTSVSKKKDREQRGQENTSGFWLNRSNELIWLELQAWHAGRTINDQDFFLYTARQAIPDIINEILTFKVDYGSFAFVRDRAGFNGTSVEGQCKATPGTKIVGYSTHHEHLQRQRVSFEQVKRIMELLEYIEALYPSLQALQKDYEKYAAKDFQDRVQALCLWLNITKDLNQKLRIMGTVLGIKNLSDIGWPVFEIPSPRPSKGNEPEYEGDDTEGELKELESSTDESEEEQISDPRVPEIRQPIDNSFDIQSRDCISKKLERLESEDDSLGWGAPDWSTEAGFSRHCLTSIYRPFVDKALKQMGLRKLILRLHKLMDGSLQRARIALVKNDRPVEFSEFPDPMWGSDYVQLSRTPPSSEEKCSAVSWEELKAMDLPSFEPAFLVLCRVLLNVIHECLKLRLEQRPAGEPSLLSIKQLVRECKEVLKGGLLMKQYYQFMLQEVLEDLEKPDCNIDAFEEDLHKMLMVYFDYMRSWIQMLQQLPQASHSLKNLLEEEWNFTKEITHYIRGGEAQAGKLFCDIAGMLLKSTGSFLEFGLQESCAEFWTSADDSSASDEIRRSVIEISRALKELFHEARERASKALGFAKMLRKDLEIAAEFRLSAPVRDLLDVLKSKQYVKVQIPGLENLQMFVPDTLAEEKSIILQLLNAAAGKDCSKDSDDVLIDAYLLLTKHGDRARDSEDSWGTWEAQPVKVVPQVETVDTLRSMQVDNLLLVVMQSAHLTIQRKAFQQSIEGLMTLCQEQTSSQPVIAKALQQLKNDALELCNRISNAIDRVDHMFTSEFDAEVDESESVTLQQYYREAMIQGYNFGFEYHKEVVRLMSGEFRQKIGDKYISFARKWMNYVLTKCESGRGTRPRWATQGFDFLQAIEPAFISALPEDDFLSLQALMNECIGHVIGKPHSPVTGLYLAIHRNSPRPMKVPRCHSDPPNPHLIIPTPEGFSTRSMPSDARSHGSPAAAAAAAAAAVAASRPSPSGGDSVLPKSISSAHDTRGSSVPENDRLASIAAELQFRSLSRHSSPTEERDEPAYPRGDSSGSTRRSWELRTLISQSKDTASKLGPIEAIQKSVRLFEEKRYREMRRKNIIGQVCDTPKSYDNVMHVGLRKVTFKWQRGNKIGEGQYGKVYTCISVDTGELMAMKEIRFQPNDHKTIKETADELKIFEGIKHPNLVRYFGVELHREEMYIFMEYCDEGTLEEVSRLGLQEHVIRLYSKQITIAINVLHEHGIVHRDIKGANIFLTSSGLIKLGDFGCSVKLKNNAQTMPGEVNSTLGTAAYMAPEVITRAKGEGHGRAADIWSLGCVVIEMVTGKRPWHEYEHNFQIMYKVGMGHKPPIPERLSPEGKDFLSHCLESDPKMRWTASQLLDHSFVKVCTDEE

[16] = target: T16, selected panels of kinases in HeLa and PC3 cell lysates (Homo sapiens, UniProt Q9NRH2); conditions: 10 uM; SNRK; peptide DLkPENVVFFEK; proteome PC3; labeling site Lys2
T16 construct: endogenous in cells; host or cells: HeLa and PC3 cell lysates

[17] = target: T17, selected panels of kinases in HeLa and PC3 cell lysates (Homo sapiens, UniProt P42680); conditions: 10 uM; TEC; peptide […]kFPVK; proteome HEL; labeling site Activation Loop
T17 construct: endogenous in cells; host or cells: HeLa and PC3 cell lysates
T17 sequence (P42680 whole entry): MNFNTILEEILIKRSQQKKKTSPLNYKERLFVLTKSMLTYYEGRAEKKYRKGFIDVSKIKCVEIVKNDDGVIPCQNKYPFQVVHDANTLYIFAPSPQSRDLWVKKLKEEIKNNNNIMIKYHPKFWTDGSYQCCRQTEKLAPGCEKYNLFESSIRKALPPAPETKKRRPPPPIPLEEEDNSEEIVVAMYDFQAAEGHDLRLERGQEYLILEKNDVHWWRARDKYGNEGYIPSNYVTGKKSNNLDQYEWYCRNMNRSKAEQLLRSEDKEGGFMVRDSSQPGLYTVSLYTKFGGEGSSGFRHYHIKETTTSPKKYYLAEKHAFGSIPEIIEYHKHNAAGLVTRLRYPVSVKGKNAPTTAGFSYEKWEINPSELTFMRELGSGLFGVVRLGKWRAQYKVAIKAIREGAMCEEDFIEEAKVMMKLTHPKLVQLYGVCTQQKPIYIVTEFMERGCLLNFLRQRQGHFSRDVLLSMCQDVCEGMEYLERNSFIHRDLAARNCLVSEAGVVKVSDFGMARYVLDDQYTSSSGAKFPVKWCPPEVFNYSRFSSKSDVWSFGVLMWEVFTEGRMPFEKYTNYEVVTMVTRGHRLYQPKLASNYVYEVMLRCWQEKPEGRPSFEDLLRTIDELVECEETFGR

[18] = target: T18, selected panels of kinases in HeLa and PC3 cell lysates (Homo sapiens, UniProt P29317); conditions: 10 uM, proteome PC3
T18 construct: endogenous in cells; host or cells: HeLa and PC3 cell lysates
T18 sequence (P29317 24-976): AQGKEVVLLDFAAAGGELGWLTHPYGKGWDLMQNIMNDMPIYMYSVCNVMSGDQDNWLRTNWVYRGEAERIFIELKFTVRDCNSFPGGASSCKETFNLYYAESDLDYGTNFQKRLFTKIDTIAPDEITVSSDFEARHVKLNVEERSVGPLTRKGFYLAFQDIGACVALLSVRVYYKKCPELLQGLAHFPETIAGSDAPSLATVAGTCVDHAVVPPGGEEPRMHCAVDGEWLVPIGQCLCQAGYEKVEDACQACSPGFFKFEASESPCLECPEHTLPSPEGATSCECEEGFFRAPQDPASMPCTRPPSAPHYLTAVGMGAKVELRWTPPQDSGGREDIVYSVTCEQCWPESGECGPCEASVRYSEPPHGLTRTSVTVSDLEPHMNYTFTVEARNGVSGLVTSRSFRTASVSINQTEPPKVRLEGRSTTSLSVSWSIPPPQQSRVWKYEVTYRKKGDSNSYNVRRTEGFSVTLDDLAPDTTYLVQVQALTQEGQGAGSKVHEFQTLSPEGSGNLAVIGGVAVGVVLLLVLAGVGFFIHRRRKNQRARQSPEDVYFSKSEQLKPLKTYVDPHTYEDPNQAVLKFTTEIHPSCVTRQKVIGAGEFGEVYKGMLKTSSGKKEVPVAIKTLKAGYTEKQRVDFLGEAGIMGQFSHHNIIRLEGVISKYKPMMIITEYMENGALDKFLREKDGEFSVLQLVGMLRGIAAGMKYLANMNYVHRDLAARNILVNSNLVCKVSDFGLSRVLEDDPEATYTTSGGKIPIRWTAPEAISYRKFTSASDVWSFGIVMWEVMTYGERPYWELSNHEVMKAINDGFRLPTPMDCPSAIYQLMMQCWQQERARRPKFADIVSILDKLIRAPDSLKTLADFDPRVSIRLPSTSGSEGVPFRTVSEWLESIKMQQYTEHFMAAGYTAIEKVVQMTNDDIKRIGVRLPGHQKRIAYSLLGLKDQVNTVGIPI

[19] = target: T19, selected panels of kinases in HeLa and PC3 cell lysates (Homo sapiens, UniProt P51617); conditions: 10 uM; proteome PC3; peptide […]k[…]; labeling site Lys2
T19 construct: endogenous in cells; host or cells: HeLa and PC3 cell lysates

[20] = target: T20, selected panels of kinases in HeLa and PC3 cell lysates (Homo sapiens, UniProt Q86SG6); conditions: 10 uM; proteome PC3; peptide DLkTQNILLDK; labeling site Lys2
T20 construct: endogenous in cells; host or cells: HeLa and PC3 cell lysates

[21] = peptide DLkPQNLLINR, labeling site Lys2
[22] = peptide ETHEIVALkR, labeling site Lys1
[23] = peptide […]kR, labeling site Lys1
[24] = peptide EVPVAIkTLK, labeling site Lys1
[25] = peptide […]kIPIR, labeling site Activation Loop

Row | SMILES | % Inhibiton, CDK2 ([1]; proteome HEL) | % Inhibiton, CDK2 ([1]; proteome PC3) | % Inhibiton, FAK [2] | % Inhibiton, MST2 ([3]; proteome HEL) | % Inhibiton, MST2 ([3]; proteome PC3) | % Inhibition ULK3 [4] | % Inhibiton, FES [5] | % Inhibiton, BARK1 [6] | % Inhibition PHKg2 [7] | % Inhibiton, CK2a2 [8] | % Inhibition PIK3C3 [9] | % Inhibiton, CDK5 [10, 21] | % Inhibiton, CDK5 [10, 22] | % Inhibiton, CDK5 [10, 23] | % Inhibiton, LYN [11] | % Inhibiton, IKKa [12] | % Inhibition Wee1 [13] | % Inhibiton, CLK2 [14] | % Inhibiton, MAP3K4 ([15]; proteome HEL) | % Inhibiton, MAP3K4 ([15]; proteome PC3) | also measured
1 | COc1cc(C(=O)N2CCC(N3CCN(C)CC3)CC2)ccc1Nc1ncc2c(n1)N(C1CCCC1)c1ccccc1C(=O)N2C [Compound 25, 11-cyclopentyl-2-((2-methoxy-4-(4-(4-methylpiperazin-1-yl)piperidine-1-carbonyl)phenyl)amino)-5-methyl-5H-benzo[e]pyrimido[5,4-b][1,4]diazepin-6(11H)-one] | 9.4% | 5.0% | 79.4% | -4.5% | -9.2% | -3.7% | 6.0% | 12.0% | 8.1% | -14.2% | 4.0% | -8.6% | 9.7% | -1.2% | -2.9% | 5.3% | 11.1% | -17.0% | 7.2% | 2.6% | % Inhibition SNRK [16]: -15.7%; % Inhibition TEC [17]: 8.9%; % Inhibiton, EphA2 [18, 24]: -0.8%; % Inhibiton, EphA2 [18, 25]: -2.3%; % Inhibiton, IRAK1 [19]: 1.2%; % Inhibiton, NEK8 [20]: -18.9%
2 | CCOc1cc(C(=O)N2CCC(N3CCN(C)CC3)CC2)ccc1Nc1ncc2c(n1)N(C1CCCC1)c1ccccc1C(=O)N2C [Compound 26] | 7% | -6.7% | 48.4% | 10.8% | -9.4% | 2.5% | 4.1% | 10.9% | -3.8% | 8% | 8.1% | -4.7% | -6.5% | 11.7% | 26.5% | -5.9% | 2.9% | 9.1% | -12% | -1.2% | % Inhibition SNRK [16]: -6.9%; % Inhibition TEC [17]: 5.8%; % Inhibiton, EphA2 [18, 24]: -1.4%; % Inhibiton, EphA2 [18, 25]: -3%; % Inhibiton, IRAK1 [19]: -2.9%; % Inhibiton, NEK8 [20]: -8.1%
